Experimental findings from patent US10493056B2, “Method of use of diterpenoid derivatives as anticancer agents” (Hong Kong Baptist University, priority 2016, dated 2019) are described below.

For series [1], the system named is HCT-116 human colorectal carcinoma cell line. Kind of series: sulforhodamine B anti-proliferative assay, HCT-116. The series is classed as cell-based. As to conditions: HCT-116, 48 hours incubation, SRB; for IC50: Homo sapiens, read-out: Anti-proliferative activity, IC50 (concentration required to inhibit cell growth by 50%). Here is the method: (§1) Human colorectal carcinoma HCT-116 and HT-29 cells are routinely maintained in McCoy's 5A medium (Gibco) whereas human melanoma A375 cells and human pancreatic adenocarcinoma PANC-1 cells are cultured in DMEM (Gibco) supplemented with 10% fetal bovine serum (Gibco), 1% penicillin-streptomycin (Gibco) in a 5% CO2, 95% air humidified atmosphere at 37° C.
(§2) For the sulforhodamine B assay, different carcinoma cells were seeded in 96-well plates at a density of 5×10^3 cells/well and incubated with serial dilutions of ent-kaurene diterpenoids FA, FA1, FA2, FA3, FA4 or PA for 48 hours. After incubation, cells were treated with 50% trichloroacetic acid at 4° C. for at least 30 minutes for protein fixing. Cells were then washed with water 4 times prior to a complete dry down of the culture plate. To each well, 100 μL of 0.4% sulforhodamine B in 1% acetic acid was added. After 30-minute incubation at room temperature, cells were washed with 1% acetic acid 4 times. Fixed proteins were fully solubilized with 10 mM Tris base solution (pH 10, 200 μL/well). Spectrophotometric absorbance of samples were measured at 515 nm using a microplate reader (Bio-rad).

In series [2] the test system is A375 human melanoma cell line. Kind of series: sulforhodamine B anti-proliferative assay, A375. In kind it is cell-based. As to conditions: A375, 48 hours incubation, SRB; for IC50: Homo sapiens, A-375, read-out: Anti-proliferative activity, IC50 (concentration required to inhibit cell growth by 50%). Here is the method:
as §1, §2

Series [3] relates to HT-29 human colorectal carcinoma cell line. Briefly: sulforhodamine B anti-proliferative assay, HT-29. In kind it is cell-based. As to conditions: HT-29, 48 hours incubation, SRB; for IC50: Homo sapiens, read-out: Anti-proliferative activity, IC50 (concentration required to inhibit cell growth by 50%). The protocol: as §1, §2
For series [4], the system named is PANC-1 human pancreatic ductal adenocarcinoma cell line. Kind of series: sulforhodamine B anti-proliferative assay, PANC-1. The series is classed as cell-based. As to conditions: PANC-1, 48 hours incubation, SRB; for IC50: Homo sapiens, read-out: Anti-proliferative activity, IC50 (concentration required to inhibit cell growth by 50%). The protocol:
as §1, §2

The next series relates to HCT-116 cells. Briefly: flow cytometric annexin V-FITC/propidium iodide apoptosis assay. The series is classed as cell-based, human. As to conditions: HCT-116, 0.25, 0.5 and 1.0 μg/mL for 48 hours, concentration-dependent (FIG. 2). The protocol: From the flow cytometric analysis, the staining percentage of annexin V/FITC and propidium iodide (PI) is detected as percentage at Q1: necrosis (upper left quarter); Q2: late apoptosis (upper right quarter); Q3: live (lower left quarter); Q4: early apoptosis (lower right quarter).
For the flow cytometric assay, HCT-116 cells were seeded in 6-well plates at a density of 1×10^5 cells/well and incubated with serial dilutions of FA3 for 48 hours. Cells were collected by centrifugation, re-suspended in 500 μL of binding buffer containing 5 μL of propidium iodide and 5 μL of annexin V-FITC, and incubated for 15 minutes in dark. Signals of the cell suspension were then analyzed using a flow cytometer (BD) for apoptotic events.
A general note: In flow cytometry, cells or beads pass a laser one at a time.

Series [5] concerns HCT-116 colon carcinoma cell-bearing nude mice. Kind of series: HCT-116 xenograft experiment in nude mice. In kind it is in vivo, male BALB/c nude mice. As to conditions: for growth of xenograft tumor in terms of volume: 20 mg/kg i.p. every other day for 21 days, compared to paclitaxel 10 mg/kg (FIG. 4, FIG. 6). Here is the method:
For the xenograft experiment, HCT-116 cells were implanted subcutaneously in the right and left flanks (1×10^6 cells in 100 μL) of male BALB/c nude mice (n=10/group), which were SPF class and aged 6-7 weeks old weighing between 20 g-25 g. Tumor size was monitored by measuring two perpendicular diameters with a caliper every other day. When tumors were formed to approximately 100 mm^3 seven days after the injection of HCT-116 cells, FA3 or PA was administered (20 mg/kg, every other day by intraperitoneal injection for a total of 21 days). To the paclitaxel group, injection of paclitaxel was given at 10 mg/kg to the nude mice whilst the vehicle group merely received the 2.5% EtOH and Cremphor EL solution, which was the dissolving solution for FA3, PA and paclitaxel. Tumor volume and body weight of mice were recorded at indicated time points during the course of experiment. Tumor volume was calculated as volume=length×width^2×0.5. Weight of tumor xenograft was assessed at the time of sacrificed.
The data are presented as mean±standard error of the mean (S.E.M.). Statistical differences among the experimental groups were tested by one-way analysis of variance (ANOVA). P-value<0.05 was considered as statistically significant.

≈ marks a conversion by molar mass, not a printed value.

As for `C=C1C(=O)[C@@]23[C@@H]4OC(C)(C)O[C@@H]2C[C@@H]2C(C)(C)CCC[C@@]2(COC(C)=O)[C@@H]3C(=O)C[C@@H]14` [FA2], the IC50 in series [1], in series [2], in series [3] and in series [4] was more than 2 µg/mL in each case.

As for `C=C1C(=O)[C@@]23[C@H](O)C[C@@H]4C(C)(C)CCC[C@@]4(COC(C)=O)[C@@H]2C(=O)C[C@@H]1[C@H]3O` [FA3], the IC50 was 0.274 µg/mL (≈ 0.701 µM) in series [1], 0.668 µg/mL (≈ 1.71 µM) in series [2], 0.424 µg/mL (≈ 1.09 µM) in series [3] and 0.413 µg/mL (≈ 1.06 µM) in series [4]. Also, the degree of apoptosis result in the series on HCT-116 cells is given as “Substantial increase in the degree of apoptosis”. In series [5], the “growth of xenograft tumor in terms of volume” value is listed as “more sufficiently restrained”. Moreover, the “growth of xenograft tumor in terms of weight” value in series [5] (20 mg/kg i.p. every other day, day 21, compared to paclitaxel 10 mg/kg (FIG. 3)) was “more sufficiently restrained”. Besides, the “change of body weight” value in series [5] (21-day administration, tumor-bearing nude mice (FIG. 5)) was “does not lead to a significant loss of body weight”.

Take `C=C1C(=O)[C@@]23[C@@H]4OC(C)(C)O[C@@H]2C[C@@H]2C(C)(C)CCC[C@]25CO[C@](O)(C[C@@H]14)[C@@H]53` [FA4]: the IC50 was 0.98 µg/mL (≈ 2.52 µM) in series [1], more than 2 µg/mL in series [2], more than 2 µg/mL in series [3] and more than 2 µg/mL in series [4].

For the molecule `C=C1C(=O)[C@@]23C(O)C[C@@H]4C(C)(C)CCCC4(COC(C)=O)[C@@H]2[C@@H](O)C[C@@H]1[C@H]3O` (stereo partly shown) [FA, flexicaulin A, reference compound], the “Anti-proliferative activity, IC50 (concentration required to inhibit cell growth by 50%)” value worked out at 0.7215 µg/mL in series [1], 1.624 µg/mL in series [2], 0.9732 µg/mL in series [3] and 1.024 µg/mL in series [4].

Turning to `C=C1C(=O)[C@]23[C@H](O)C[C@@H]4C(C)(C)CCC[C@]45CO[C@](O)(C[C@@H]1[C@H]2O)[C@@H]53` [PA, pseudoirroratin A, reference compound], the “Anti-proliferative activity, IC50 (concentration required to inhibit cell growth by 50%)” value in series [1] was 0.2702 µg/mL; in series [2] it was 0.8737 µg/mL; in series [3] it was 0.4194 µg/mL; in series [4] it was 0.4396 µg/mL. The “growth of xenograft tumor in terms of volume” value in series [5] is “not as efficient as paclitaxel”.
